# Laboratory results: article PMC3644400 (Investigational New Drugs, 2012)
# Read-outs that look alike come from different tables or passages of the source.
# How the values were obtained:
# [1] = Phase I dose escalation: MTD and dose-limiting toxicity; type: in vivo, patients
# Description: Docetaxel was initiated at 60 mg/m^2 IV infusion and increased to 75 mg/m^2 IV infusion in the absence of DLT.
# A standard ‘3 + 3’ design was used. The MTD was defined as the highest dose of afatinib at which no more than one out of six patients experienced a DLT. Once the MTD was determined, a further 12 evaluable patients were included at the MTD level.
# [2] = Plasma pharmacokinetics (HPLC tandem-mass spectrometry); settings: MTD group
# HER2 = settings: read-out: IC50 HER2; cited from earlier work
# clinical = settings: human, in vivo
# ErbB4 = settings: read-out: IC50 ErbB4; cited from earlier work
# [3] = human, in vivo
# [4] = docetaxel (day 1) followed by intermittent erlotinib (days 2–16 every 3 weeks), previously treated advanced NSCLC; cited from earlier work
# advanced NSCLC = settings: cited from earlier work; for response rate: advanced NSCLC
# advanced solid tumors = settings: intermittent high-dose gefitinib given prior to docetaxel; cited from earlier work
compound,measurement,setting,value
CN(C)C/C=C/C(=O)Nc1cc2c(Nc3ccc(F)c(Cl)c3)ncnc2cc1O[C@H]1CCOC1 [afatinib],maximum tolerated dose (MTD) of afatinib,"[1]; afatinib days 2–4 with docetaxel 75 mg/m^2 day 1, 3-week cycles",90 mg/day
same,MTD and recommended phase II dose of afatinib,[1]; once daily for 3 days following docetaxel 75 mg/m^2,90 mg
same,Tmax,"[2]; human, in vivo, Afatinib tmax, median, treatment cycle 1 (n = 13)",3 h
same,IC50,HER2,14 nM
same,AUC(0-t),clinical,995 ng·h/mL
same,Tmax,clinical,4.03 h
same,AUC(0-t),clinical; 75 mg/m2,879 ng·h/mL
same,Cmax,"clinical; Afatinib Cmax, gMean",71.4 ng/mL
same,Vd/F,"clinical; Afatinib Vz/F, gMean",1500 L
CC(=O)O[C@@]12CO[C@@H]1C[C@H](O)[C@@]1(C)C(=O)[C@H](O)C3=C(C)[C@@H](OC(=O)[C@H](O)[C@@H](NC(=O)OC(C)(C)C)c4ccccc4)C[C@@](O)([C@@H](OC(=O)c4ccccc4)[C@H]21)C3(C)C [docetaxel],"Docetaxel AUC0–∞, gMean",[2]; treatment cycle 2 (n = 8),3260 ng·h/mL
same,"Docetaxel t1/2, gMean",[2]; treatment cycle 2 (n = 8),21.1 h
same,"Docetaxel AUC0–24, gMean",[3],2680 ng·h/mL
same,"Docetaxel AUC0–∞, gMean ratio cycle 2 to cycle 1",[3],118%
same,"Docetaxel CL, gMean",[3],682 mL/min
same,"Docetaxel Cmax, gMean",[3],2200 ng/mL
same,"Docetaxel Cmax, gMean ratio cycle 2 to cycle 1",[3],115%
same,"Docetaxel VSS, gMean",[3],487 L
same,"Docetaxel Vz, gMean",[3],1250 L
same,"Docetaxel tmax, median",[3],1.00 h
same,half-life,clinical,20.9 h
same,AUC(0-t),"clinical; Docetaxel AUC0–24, gMean",2630 ng·h/mL
same,clearance,"clinical; Docetaxel CL, gMean",712 mL/min
same,Cmax,"clinical; Docetaxel Cmax, gMean",2070 ng/mL
same,Vd,"clinical; Docetaxel VSS, gMean",488 L
same,Vd,"clinical; Docetaxel Vz, gMean",1290 L
same,Tmax,"clinical; Docetaxel tmax, median",1 h
same,AUC(0-inf),"clinical; iv, 75 mg/m2",3160 ng·h/mL
C#Cc1cccc(Nc2ncnc3cc(OCCOC)c(OCCOC)cc23)c1 [erlotinib],grade 3/4 neutropenia,[4],60%
same,response rate,advanced NSCLC; chemotherapy followed by erlotinib,28%
same,objective response rate,"advanced NSCLC; docetaxel (day 1) followed by intermittent erlotinib (days 2–16 every 3 weeks), previously treated advanced NSCLC",35%
same,response rate,advanced NSCLC; high-dose erlotinib (days 1 and 2) with carboplatin and paclitaxel (day 3),34%
same,response rate,"advanced NSCLC; low-dose erlotinib, same schedule with carboplatin and paclitaxel",18%
COc1cc2ncnc(Nc3ccc(F)c(Cl)c3)c2cc1OCCCN1CCOCC1 [gefitinib],objective response rate,advanced solid tumors,11%
